ChEMBL document CHEMBL1201862, “PubChem BioAssay data set” (2004)
Calls of active or inactive are those of the source.

Key:
[1] = molecular target: T1, Long-chain-fatty-acid--AMP ligase FadD28 (Mycobacterium tuberculosis, UniProt P9WQ59); assay: Fluorescence polarization aasay to screen for inhibitors that compete for the binding of FadD28 to a bisubstrate Measured in Biochemical System Using Plate Reader - 2147-01_Inhibitor_Dose_CherryPick_Activity.; format: functional, Mycobacterium tuberculosis H37Rv
T1 sequence (P9WQ59 whole entry): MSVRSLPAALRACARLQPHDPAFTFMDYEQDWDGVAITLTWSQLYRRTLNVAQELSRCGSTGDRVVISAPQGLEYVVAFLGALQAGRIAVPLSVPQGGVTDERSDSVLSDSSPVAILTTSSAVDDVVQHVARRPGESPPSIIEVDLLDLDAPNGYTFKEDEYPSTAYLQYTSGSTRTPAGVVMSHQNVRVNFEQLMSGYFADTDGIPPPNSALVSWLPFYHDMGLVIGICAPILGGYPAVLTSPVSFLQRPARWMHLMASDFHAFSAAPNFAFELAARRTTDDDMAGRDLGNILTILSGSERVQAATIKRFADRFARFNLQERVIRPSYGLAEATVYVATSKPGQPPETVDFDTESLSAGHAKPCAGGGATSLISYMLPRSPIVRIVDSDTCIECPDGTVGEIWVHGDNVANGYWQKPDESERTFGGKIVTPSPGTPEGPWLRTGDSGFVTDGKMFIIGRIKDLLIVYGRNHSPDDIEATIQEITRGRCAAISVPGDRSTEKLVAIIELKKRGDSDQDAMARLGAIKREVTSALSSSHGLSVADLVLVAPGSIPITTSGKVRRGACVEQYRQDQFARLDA

Protein skinhead-1 = molecular target: T2, Protein skinhead-1 (Caenorhabditis elegans, UniProt P34707); format: functional
T2 sequence (P34707 whole entry): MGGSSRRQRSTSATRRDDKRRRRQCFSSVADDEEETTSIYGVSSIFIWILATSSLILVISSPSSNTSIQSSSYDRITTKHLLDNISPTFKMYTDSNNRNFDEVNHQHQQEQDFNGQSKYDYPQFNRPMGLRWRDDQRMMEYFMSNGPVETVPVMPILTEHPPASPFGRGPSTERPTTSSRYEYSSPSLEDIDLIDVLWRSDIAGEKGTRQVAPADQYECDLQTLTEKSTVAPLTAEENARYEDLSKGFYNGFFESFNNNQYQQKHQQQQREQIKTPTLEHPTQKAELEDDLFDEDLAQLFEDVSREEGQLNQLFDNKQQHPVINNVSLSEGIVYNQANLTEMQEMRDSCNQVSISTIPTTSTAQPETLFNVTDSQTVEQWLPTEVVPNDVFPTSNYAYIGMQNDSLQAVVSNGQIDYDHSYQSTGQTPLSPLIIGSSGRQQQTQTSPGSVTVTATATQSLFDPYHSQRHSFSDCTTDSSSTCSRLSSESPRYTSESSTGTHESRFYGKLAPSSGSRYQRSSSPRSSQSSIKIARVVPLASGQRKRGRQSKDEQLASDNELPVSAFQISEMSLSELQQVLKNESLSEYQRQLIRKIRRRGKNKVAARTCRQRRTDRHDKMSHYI

[2] = P. falciparum Dd2 growth inhibitors, dose response, SYBR Green, cherry-picked samples (AID 1159567); format: functional, cell-based
[3] = toxicity to human hepatoma HepG2 cells – cell-based, cherry-picked samples, cytotoxicity control, dose response (AID 1159577); format: functional
BJ [4] = assay: BJ-TERT fibroblast viability loss – cell-based, RAS-independent, luminescence, dose response (AID 1933); format: functional; conditions: Homo sapiens
BJ [5] = assay: cells; format: functional, cell-based; conditions: Homo sapiens
BJ [6] = assay: BJ-TERT-LT-ST fibroblast viability loss – cell-based, RAS-independent, luminescence, dose response (AID 1935); format: functional; conditions: Homo sapiens;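 further: BJ fibroblasts immortalized with TERT plus LT and ST oncogenes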
[7] = DRD fibroblast viability loss – cell-based, non-viral oncogenic, luminescence, dose response (AID 1934); format: functional; conditions: Homo sapiens
[8] = viability of uninfected HEp-2 cells – cell-based, HTS, cytotoxicity control for RSV inhibitor project, dose response (AID 2410); format: functional; conditions: human respiratory syncytial virus
[9] = blockers of HIV-1 envelope-mediated cell-cell fusion – cherry-pick, dose response (AID 652057); format: functional, cell-based
[10] = blockers of HIV-1 ZM109 envelope-driven cell-cell fusion – HeLa effector, CEM target cells, luciferase, cherry-pick, dose response (AID 652058); format: functional, cell-based;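 further: luciferase signal from HIV-1 Env mediated cell-cell fusion of effector and target cells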
[11] = off-target signal loss in HeLa-CEM21 co-culture – HeLa F-luc CTL cells, cherry-picked, counter-screen for HIV-1 Env fusion inhibitor project, dose response (AID 652040); format: functional, cell-based;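 further: potency for signal decrease marking cytotoxic or nonspecific inhibition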
[12] = HIV-1 AD8 envelope cell-cell fusion blockers – cherry-pick, dose response (AID 652062); format: functional, cell-based;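 further: luciferase signal from cell-cell fusion driven by HIV-1 clade B AD8 Env; potency is for inhibitors of fusion seen as a drop in luminescence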
cells [13] = format: functional, cell-based
cells [14] = format: functional, cell-based; remark: listed apart in the source
[15] = Trypanosoma cruzi growth suppression in host cells – NIH3T3 host cells, beta-gal luminescence, confirmation (AID 2044); format: functional, cell-based;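 further: intracellular parasites grown in NIH/3T3 mouse fibroblasts as host cells; luminescent beta-galactosidase reporter signal from transgenic T. cruzi replicating inside host cells; inhibitors lower the luminescence signal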
[16] = NIH3T3 cell viability loss – ATP luminescence, mouse fibroblasts, counter-screen, dose response (AID 2010); format: functional, cell-based;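 further: cells exposed to compound for about 90 hours before reading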
[17] = growth inhibition of yeast DHODH-expressing 3D7 parasites – SYBR Green, dry powder samples, dose response (AID 1159570); format: functional, cell-based;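 further: parasite growth measured after 72 hours of compound exposure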
[18] = toxicity to human HepG2 hepatoma cells – cell-based, plate reader, dry powder samples, cytotoxicity control, dose response (AID 1159569); format: functional;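 further: inhibitor potency with signal falling toward the positive control level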
[19] = Dd2 malaria parasite growth inhibition potency – SYBR Green, dry powder samples, dose response (AID 1159566); format: functional, cell-based;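 further: potency for growth inhibition with lower SYBR green DNA signal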
[20] = growth inhibition of PfATP4-mutant resistant parasites – NITD609-resistant line, SYBR Green, dry powder, dose response (AID 1159571); format: functional, cell-based;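 further: parasites synchronized at ring stage by sorbitol before testing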
[21] = molecular target: T3, Histone-lysine N-methyltransferase NSD2 (Homo sapiens, UniProt O96028); format: biochemical
T3 sequence (O96028 whole entry): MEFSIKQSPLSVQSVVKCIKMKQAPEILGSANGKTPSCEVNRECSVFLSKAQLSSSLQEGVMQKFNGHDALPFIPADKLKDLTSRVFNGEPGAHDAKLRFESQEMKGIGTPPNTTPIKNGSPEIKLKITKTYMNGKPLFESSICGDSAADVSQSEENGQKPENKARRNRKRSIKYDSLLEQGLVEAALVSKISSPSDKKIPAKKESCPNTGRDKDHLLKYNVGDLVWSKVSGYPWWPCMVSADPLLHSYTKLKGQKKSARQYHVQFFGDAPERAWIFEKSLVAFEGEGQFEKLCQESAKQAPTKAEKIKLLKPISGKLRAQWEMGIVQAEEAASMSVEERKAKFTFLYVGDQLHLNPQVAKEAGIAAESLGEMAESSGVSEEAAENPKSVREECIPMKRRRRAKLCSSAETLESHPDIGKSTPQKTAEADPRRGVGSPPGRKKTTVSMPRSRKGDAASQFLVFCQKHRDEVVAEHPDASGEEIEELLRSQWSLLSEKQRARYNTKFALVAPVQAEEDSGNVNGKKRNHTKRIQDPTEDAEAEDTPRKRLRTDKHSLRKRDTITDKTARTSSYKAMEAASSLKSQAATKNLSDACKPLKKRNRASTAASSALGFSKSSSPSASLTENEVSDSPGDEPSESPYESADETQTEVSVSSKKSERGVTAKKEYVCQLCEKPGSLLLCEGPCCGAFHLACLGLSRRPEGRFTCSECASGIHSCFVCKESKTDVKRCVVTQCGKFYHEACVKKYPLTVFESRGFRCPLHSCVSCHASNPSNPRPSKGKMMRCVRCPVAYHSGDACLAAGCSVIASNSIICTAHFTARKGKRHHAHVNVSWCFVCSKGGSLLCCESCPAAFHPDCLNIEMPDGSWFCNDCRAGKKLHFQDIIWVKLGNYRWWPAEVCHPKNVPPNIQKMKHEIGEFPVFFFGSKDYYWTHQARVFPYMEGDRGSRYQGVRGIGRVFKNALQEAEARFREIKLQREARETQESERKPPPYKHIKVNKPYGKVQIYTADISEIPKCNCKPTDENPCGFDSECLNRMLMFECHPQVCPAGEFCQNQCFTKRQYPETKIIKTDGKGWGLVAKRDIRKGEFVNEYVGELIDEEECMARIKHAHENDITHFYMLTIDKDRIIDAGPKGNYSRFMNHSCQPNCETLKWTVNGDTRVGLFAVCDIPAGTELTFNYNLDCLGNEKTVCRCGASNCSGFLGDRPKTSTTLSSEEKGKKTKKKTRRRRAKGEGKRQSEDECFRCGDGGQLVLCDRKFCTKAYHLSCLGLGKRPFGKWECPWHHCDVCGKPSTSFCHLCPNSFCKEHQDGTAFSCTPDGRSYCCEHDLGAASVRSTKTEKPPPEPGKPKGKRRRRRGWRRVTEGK

O=C(Cn1nnc(-c2ccc3c(c2)OCO3)n1)Nc1ccccc1C(=O)O
AC50 [1]: 32 µM (inactive)

CCn1c(CSc2nnc(-c3ccncc3)n2C)nc2cc(C(=O)O)ccc21
IC50 (Protein skinhead-1): > 100 µM (inactive) | AC50 [1]: > 100 µM (inactive)

O=C(C1CCCC1)N1CC(=O)N2[C@@H](CO)[C@H](c3ccc(C#CCc4ccccc4)cc3)[C@@H]2C1
AC50 [2]: 2.47 µM (active) | AC50 [3]: 8.92 µM (active)

C[C@H](CO)N1C[C@H](C)[C@@H](CN(C)S(=O)(=O)c2cccs2)Oc2ccc(NC(=O)Nc3ccc(C(F)(F)F)cc3)cc2C1=O
AC50 [1]: > 100 µM (inactive)

Cc1nc(N2CCCCC2)sc1C(=O)c1ccc(Cl)c([N+](=O)[O-])c1
EC50 (BJ [4]): 9.77 µM (active) | EC50 (BJ [5]): > 150 µM (not active) | EC50 (BJ [6]): > 75 µM (inconclusive) | EC50 [7]: 15.6 µM (active)

COc1ccc2c3c(n(C)c2c1)[C@H](CO)NCC31CCN(S(=O)(=O)c2cccc(F)c2)CC1
AC50 [2]: 4.66 µM (active) | AC50 [3]: > 39 µM (inactive)

COc1cc(-c2nc3oc4ccccc4c(=O)c3c(=O)n2Cc2ccco2)cc(OC)c1OC
CC50 [8]: > 50 µM (active) | AC50 [9]: 2.38 µM (active) | AC50 [10]: 0.584 µM (active) | AC50 [11]: 5.7 µM (active) | AC50 [12]: 4.1 µM (active)

COc1ccc2c(c1)[C@H]1[C@H](CO2)[C@H](c2ccccc2)[C@]2(C)C(=O)Nc3cc(OC)c(OC)cc3C(=O)N12
AC50 [9]: 16.1 µM (active) | AC50 [10]: 18.9 µM (active) | AC50 [11]: 25.6 µM (active) | AC50 [12]: 27.3 µM (active)

O=C(CSc1n[nH]c(-c2ccccc2)n1)NC(=O)NCc1ccco1
IC50 (cells [13]): > 29.9 µM (inactive) | EC50 (cells [14]): > 29.9 µM (inactive)

O=C(Nc1ccc(Cl)cc1)N[C@@H]1c2c(ccc3ccccc23)OC[C@@H]1CO
AC50 [1]: 85.5 µM (active)

COc1cc(/C=N/NC(N)=S)ccc1OCc1ccc(C)cc1
EC50 [15]: 0.566 µM (active) | EC50 [16]: 8.5 µM (active) | AC50 [1]: 69.9 µM (active)

COc1ccccc1C#Cc1ccc2c(c1)[C@@H]1NCC[C@@H]1[C@H](CO)N2
AC50 [17]: 3.15 µM (active) | AC50 [18]: 37.3 µM (active) | AC50 [2]: 2.56 µM (active) | AC50 [19]: 1.94 µM (active) | AC50 [3]: > 39 µM (inactive) | AC50 [20]: 4.53 µM (active)

COc1ccc(CN2CC3(C2)CN(C(=O)CN(C)C)[C@H](CO)c2[nH]c4cc(OC)ccc4c23)cc1
AC50 [17]: 1.6 µM (active) | AC50 [18]: 13.6 µM (active) | AC50 [2]: 2.87 µM (active) | AC50 [19]: 1.64 µM (active) | AC50 [3]: 35.4 µM (active) | AC50 [20]: 2.51 µM (active)

C[C@@H]1CN([C@@H](C)CO)C(=O)c2c(c3ccccc3n2C)-c2ccccc2CO[C@@H]1CN(C)Cc1ccc(Cl)c(Cl)c1
AC50 [17]: 2.24 µM (active) | AC50 [18]: 22.3 µM (active) | AC50 [2]: 1.34 µM (active) | AC50 [19]: 1.11 µM (active) | AC50 [3]: 22.3 µM (active) | AC50 [20]: 1.73 µM (active)

CCN(CC)CCNC(=O)c1cc2cc(Br)ccc2s1
AC50 [21]: > 20 µM (inactive)

COc1ccccc1C#Cc1ccc([C@@H]2[C@@H](CO)N(C(=O)C3CCCCC3)[C@H]2C#N)cc1
AC50 [17]: 1.35 µM (active) | AC50 [18]: 16.4 µM (active) | AC50 [2]: 2.73 µM (active) | AC50 [19]: 0.872 µM (active) | AC50 [3]: > 39 µM (inactive) | AC50 [20]: 1.06 µM (active)
